Source: the RepoRT retention time repository (doi:10.1038/s41586-021-03707-9)

Assays:
[1] = Waters ACQUITY UPLC BEH C18, 100 × 2.1 mm, 1.7 µm, 40 °C, 0.28 mL/min, estimated dead time 0.63 min; A: water + 6.5 mM ammonium hydroxide; B: methanol + 6.5 mM ammonium hydroxide; gradient (min/%B) 0/0.5 4/70 4.5/98 5.4/98; details: stereoisomer not certain
[2] = RP, Waters ACQUITY UPLC HSS C18, 100 × 2.1 mm, 1.7 µm, 40 °C, 0.35 mL/min, estimated dead time 0.63 min; A: water + 0.1% formic acid; B: methanol + 0.1% formic acid; gradient (min/%B) 0/0.5 4/70 4.5/98 5.4/98; details: stereoisomer not certain

SMILES | LC retention time [1] [min] | LC retention time [2] [min]
OCC1OCC(O)C(O)C1O (stereo unspecified) | 0.865 | 0.864
NC(=O)CCC(NC(=O)Cc1ccccc1)C(=O)O (stereo unspecified) | 2.69 | 3.27
CC(=O)NC1C(O)OC(CO)C(O)C1OC(C)C(=O)O (stereo unspecified) | 0.854 | 1.91
Cc1cccc(C(=O)O)c1O | 3.44 | 5.29
CNCC(O)c1ccc(O)cc1 (stereo unspecified) | 1.96 | 0.855
O=C(O)C1CCCCN1 (stereo unspecified) | 1.14 | 1.15
CC(O)CC(=O)O (stereo unspecified) | 0.804 | 0.799
O=C(O)Cc1cnc[nH]1 | 0.817 | 0.825
Cn1c(=O)c2[nH]cnc2n(C)c1=O | 2.75 | 2.9
COc1cc(CC(=O)O)ccc1O | 1.89 | 3.42
NC(CC(=O)O)C(=O)NC(Cc1ccccc1)C(=O)O (stereo unspecified) | 1.73 | 2.95
O=C(O)c1ccc(CO)o1 | 0.87 | 2.36
CC12CCC(=O)C=C1CCC1C2C(O)CC2(C)C1CCC2(O)C(=O)CO (stereo unspecified) | 5.22 | 5.02
Cn1c(=O)[nH]c2[nH]c(=O)n(C)c2c1=O | 1.81 | 2.78
NC(=O)C(N)Cc1c[nH]c2ccccc12 (stereo unspecified) | 3.46 | 2.44
Nc1ncnc2nc[nH]c12 | 1.99 | 1.05
COc1cc(O)cc(OC)c1 | 4.22 | 4.13
NC1(C(=O)O)CC1 | 0.778 | 0.779
NC(=O)c1ccccc1O | 3.12 | 3.56
CC(=O)NC(CCCCN)C(=O)O (stereo unspecified) | 0.916 | 0.903
NC(=O)c1ncn(C2OC(CO)C(O)C2O)c1N (stereo unspecified) | 1.77 | 1.58
O=c1ccn(C2OC(CO)C(O)C2O)c(=O)[nH]1 (stereo unspecified) | 1.67 | 1.66
CC(NC(=O)Cc1c[nH]c2ccccc12)C(=O)O (stereo unspecified) | 3.24 | 4
CC1CNC(=O)NC1=O (stereo unspecified) | 1.94 | 1.87
OCC1OC(OC2C(CO)OC(O)(CO)C2O)C(O)C(O)C1O (stereo unspecified) | 0.859 | 0.799

SMILES | LC retention time [1] [min] | LC retention time [2] [min]
COc1cc(CCN)ccc1O | 2.57 | 1.99
COc1ccc2[nH]cc(CCNC(C)=O)c2c1 | 4.19 | 4.05
O=C(O)CCc1c[nH]c2ccccc12 | 3.13 | 4.63
Cc1cc2nc3c(=O)[nH]c(=O)nc-3n(CC(O)C(O)C(O)CO)c2cc1C (stereo unspecified) | 3.61 | 3.5
Cc1cc2nc[nH]c2cc1C | 4.93 | 3.34
C[N+](C)(C)CCCC(=O)[O-] | 0.803 | 0.814
Nc1ccnc(=O)[nH]1 | 1 | 0.783
CC=C(C)C(=O)NCC(=O)O | 2.16 | 2.9
O=C(O)CNC(=O)c1cccnc1 | 1.67 | 1.74
c1ccc2[nH]ccc2c1 | 4.85 | 4.7
CC(=O)NCCCCN | 1.29 | 0.91
CC1=CC(=O)NS(=O)(=O)O1 | 1.78 | 2.12
CC(CN)C(=O)O (stereo unspecified) | 0.808 | 0.839
NC(=O)c1cccnc1 | 2.14 | 1.4
CN(C)CCc1ccc(O)cc1 | 3.89 | 1.82
NC(=O)C1CCCN1C(=O)C(Cc1cnc[nH]1)NC(=O)C1CCC(=O)N1 (stereo unspecified) | 2.36 | 1.76
NC(Cc1ccc(O)c([N+](=O)[O-])c1)C(=O)O (stereo unspecified) | 1.1 | 2.44
Oc1ccc(O)cc1 | 1.95 | 2.83
CC(C)(N)C(=O)O | 0.806 | 0.821
O=C(O)Cc1ccccc1 | 1.75 | 2.87
CC1C(=O)Nc2ccccc21 (stereo unspecified) | 4.59 | 4.43
NC(Cc1ccc([N+](=O)[O-])cc1)C(=O)O (stereo unspecified) | 2.58 | 2.5
CC(C)(C)NCC(O)c1ccc(O)c(CO)c1 (stereo unspecified) | 3.38 | 2.34
NC(Cc1c[nH]c2ccc(O)cc12)C(=O)O (stereo unspecified) | 1.9 | 1.97
Cc1cn(C2CC(O)C(CO)O2)c(=O)[nH]c1=O (stereo unspecified) | 2.34 | 2.29

SMILES | LC retention time [1] [min] | LC retention time [2] [min]
Cc1ccc(S(=O)(=O)O)cc1 | 2.67 | 3
Nc1ccc(C(=O)O)cc1 | 0.852 | 2.41
CCCCCCCC(=O)OC(CC(=O)[O-])C[N+](C)(C)C (stereo unspecified) | 5.1 | 4.65
CC(=O)NC(CC(C)C)C(=O)O (stereo unspecified) | 2.73 | 3.9
NCC(O)c1ccccc1 (stereo unspecified) | 3.07 | 2.04
CSCC1OC(n2cnc3c(N)ncnc32)C(O)C1O (stereo unspecified) | 3.51 | 2.85
O=C(O)c1ccc(O)c(O)c1O | 0.832 | 2.59
CCC(NC(=O)CCC(N)C(=O)O)C(=O)NCC(=O)O (stereo unspecified) | 0.928 | 1.58
CC(C)=CCNc1ncnc2nc[nH]c12 | 4.91 | 3.94
CNC(=O)c1cccnc1 | 2.54 | 1.82
CC(C)NCC(O)COc1ccc(CC(N)=O)cc1 (stereo unspecified) | 3.57 | 2.35
O=c1[nH]cnc2c1ncn2C1OC(CO)C(O)C1O (stereo unspecified) | 1.9 | 1.92
c1ncc2[nH]cnc2n1 | 1.85 | 1.69
Nc1nc2c(ncn2C2OC3COP(=O)(O)OC3C2O)c(=O)[nH]1 (stereo unspecified) | 1.87 | 1.99
CCCCCCCC(=O)NCC(=O)O | 4.67 | 5.22
Cn1c(=O)c2[nH]c(=O)[nH]c2n(C)c1=O | 1.92 | 2.47
O=Cc1ccc(O)cc1 | 2.36 | 3.39
O=C1CC(C(=O)O)NC(=O)N1 (stereo unspecified) | 0.767 | 0.995
CC1(C)SC2C(NC(=O)C(N)c3ccccc3)C(=O)N2C1C(=O)O (stereo unspecified) | 3.72 | 3.45
NC(Cc1ccc(O)c(O)c1)C(=O)O (stereo unspecified) | 1.1 | 1.29
CC(=O)OCC(N)C(=O)O (stereo unspecified) | 0.876 | 0.854
Nc1ccccc1S(=O)(=O)O | 1.68 | 1.79
NCCCCC(NC(CCc1ccccc1)C(=O)O)C(=O)N1CCCC1C(=O)O (stereo unspecified) | 2.96 | 3.22
COC(=O)c1ccc(O)c(OC)c1 | 4.18 | 4.36
OCC1OC(OC2(CO)OC(CO)C(O)C2O)C(O)C(O)C1O (stereo unspecified) | 0.962 | 0.86

SMILES | LC retention time [1] [min] | LC retention time [2] [min]
Cc1cn(C2CC(O)C(COP(=O)(O)O)O2)c(=O)[nH]c1=O (stereo unspecified) | 0.908 | 1.76
Nc1ccccc1C(=O)CC(N)C(=O)O (stereo unspecified) | 2.21 | 2.2
Cn1cnc2c(ncn2C2OC(CO)C(O)C2O)c1=N (stereo unspecified) | 3.02 | 2.33
Cn1c(=O)c2c([nH]c(=O)n2C)n(C)c1=O | 2.29 | 3
Oc1ccc2[nH]ccc2c1 | 2.98 | 2.9
CCCCC(N)C(=O)O (stereo unspecified) | 1.77 | 1.96
COC(=O)Cc1c[nH]c2ccccc12 | 5.01 | 4.85
CC(=O)NCCCC(=O)O | 0.923 | 1.95
CSCCC(NC(C)=O)C(=O)O (stereo unspecified) | 2.07 | 2.98
CCOC(=O)C1=CC(OC(CC)CC)C(NC(C)=O)C(N)C1 (stereo unspecified) | 5.35 | 4.43
CN1CC(=O)NC1=N | 0.861 | 0.77
Nc1ccccc1C(=O)O | 1.76 | 3.65
OCC1OC(OCC2OC(O)C(O)C(O)C2O)C(O)C(O)C1O (stereo unspecified) | 0.831 | 0.804
O=C1OC(C(O)CO)C(O)C1O (stereo unspecified) | 0.822 | 0.804
CN(C)CC(=O)O | 0.821 | 0.77
O=C(O)c1cccc(O)c1 | 0.886 | 3.47
O=c1[nH]c(=O)c2ncn(C3OC(CO)C(O)C3O)c2[nH]1 (stereo unspecified) | 1.11 | 2.09
CCN(CC)CCNC(=O)c1ccc(N)cc1 | 3.81 | 2.01
COc1ccc2[nH]cc(CC(=O)O)c2c1 | 2.72 | 4.09
Nc1nc2c(ncn2C2OC(CO)C(O)C2O)c(=O)[nH]1 (stereo unspecified) | 1.98 | 1.92
Nc1ccn(C2CC(O)C(CO)O2)c(=O)n1 (stereo unspecified) | 1.73 | 1.29
Cc1c[nH]c(=O)[nH]c1=O | 1.94 | 1.88
CSCCC(NC=O)C(=O)O (stereo unspecified) | 1.75 | 2.78
